From ChEMBL document CHEMBL3885881, “DrugMatrix”

Organism: Rattus norvegicus
Assay: DrugMatrix - Regimen: Daily Repeat
Assay type: toxicity, organism-based, Sprague-Dawley
Set-up: regimen Daily Repeat, gender Male, age 6-8 weeks
Conditions: in vivo, po, route oral GAVAGE, vehicle .5 % CMC; for ABSOLUTE BASOPHIL / ABSOLUTE EOSINOPHIL / ABSOLUTE LYMPHOCYTE / ABSOLUTE MONOCYTE / ABSOLUTE SEGMENTED NEUTROPHIL / BASOPHIL / EOSINOPHIL / ERYTHROCYTE COUNT / HEMATOCRIT / HEMOGLOBIN / LEUKOCYTE COUNT / LYMPHOCYTE / MEAN CORPUSCULAR HEMOGLOBIN / MEAN CORPUSCULAR HEMOGLOBIN CONCENTRATION / MEAN CORPUSCULAR VOLUME / MONOCYTE / NEUTROPHIL / NUCLEATED RED BLOOD CELLS / PLATELET COUNT: tissue Blood; for ALANINE AMINOTRANSFERASE / ALBUMIN / ALKALINE PHOSPHATASE / ASPARTATE AMINOTRANSFERASE / BLOOD UREA NITROGEN / CARBON DIOXIDE / CHLORIDE / CHOLESTEROL / CREATINE PHOSPHOKINASE / CREATININE / GLUCOSE / LACTATE DEHYDROGENASE / LIPASE / PHOSPHORUS / POTASSIUM / SODIUM / TOTAL BILIRUBIN / TOTAL PROTEIN / URIC ACID: tissue Plasma
[1] = 0.1 mg/kg, 120 h, dose level Low, time 5 day
[2] = […], 72 h, dose 1.1 mg/Kg, dose level High, time 3 day
[3] = […], 120 h, dose 1.1 mg/Kg, dose level High, time 5 day

## CCCN1C[C@H](CSC)C[C@@H]2c3cccc4[nH]cc(c34)C[C@H]21 [PERGOLIDE]
[1]
  ABSOLUTE BASOPHIL: 0 CELLS/uL
  ABSOLUTE EOSINOPHIL: 175 CELLS/uL
  ABSOLUTE LYMPHOCYTE: 12836.67 CELLS/uL
  ABSOLUTE MONOCYTE: 191.67 CELLS/uL
  ABSOLUTE SEGMENTED NEUTROPHIL: 1130 CELLS/uL
  BASOPHIL: 0%
  EOSINOPHIL: 1%
  ERYTHROCYTE COUNT: 6.04 x10E6/uL
  HEMATOCRIT: 38.1%
  HEMOGLOBIN: 14.47 G/DL
  LEUKOCYTE COUNT: 14.33 x10E3/uL
  LYMPHOCYTE: 89.67%
  MEAN CORPUSCULAR HEMOGLOBIN: 24.1 pg
  MEAN CORPUSCULAR HEMOGLOBIN CONCENTRATION: 38.07 G/DL
  MEAN CORPUSCULAR VOLUME: 63.27 fL
  MONOCYTE: 1.33%
  NEUTROPHIL: 8%
  NUCLEATED RED BLOOD CELLS: 0 /100WBC
  PLATELET COUNT: 1209 x10E3/uL
  ALANINE AMINOTRANSFERASE: 50.33 u/L
  ALBUMIN: 4.13 G/DL
  ALKALINE PHOSPHATASE: 348 u/L
  ASPARTATE AMINOTRANSFERASE: 111.67 u/L
  BLOOD UREA NITROGEN: 19.33 mg/dL
  CARBON DIOXIDE: 24 mmol/L
  CHLORIDE: 107 MEQ/L
  CHOLESTEROL: 76.67 mg/dL
  CREATINE PHOSPHOKINASE: 1319 u/L
  CREATININE: 0.21 mg/dL
  GLUCOSE: 156 mg/dL
  LACTATE DEHYDROGENASE: 398.67 u/L
  LIPASE: 10 u/L
  PHOSPHORUS: 13.17 mg/dL
  POTASSIUM: 6.18 MEQ/L
  SODIUM: 145.93 MEQ/L
  TOTAL BILIRUBIN: 0.2 mg/dL
  TOTAL PROTEIN: 6.23 G/DL
  URIC ACID: 2.13 mg/dL
[2]
  ABSOLUTE BASOPHIL: 0 CELLS/uL
  ABSOLUTE EOSINOPHIL: 0 CELLS/uL
  ABSOLUTE LYMPHOCYTE: 11487 CELLS/uL
  ABSOLUTE MONOCYTE: 388 CELLS/uL
  ABSOLUTE SEGMENTED NEUTROPHIL: 1058.33 CELLS/uL
  BASOPHIL: 0%
  EOSINOPHIL: 0%
  ERYTHROCYTE COUNT: 5.69 x10E6/uL
  HEMATOCRIT: 36.2%
  HEMOGLOBIN: 13.43 G/DL
  LEUKOCYTE COUNT: 12.93 x10E3/uL
  LYMPHOCYTE: 88.67%
  MEAN CORPUSCULAR HEMOGLOBIN: 23.63 pg
  MEAN CORPUSCULAR HEMOGLOBIN CONCENTRATION: 37.13 G/DL
  MEAN CORPUSCULAR VOLUME: 63.6 fL
  MONOCYTE: 3%
  NEUTROPHIL: 8.33%
  NUCLEATED RED BLOOD CELLS: 0 /100WBC
  PLATELET COUNT: 1255.67 x10E3/uL
  ALANINE AMINOTRANSFERASE: 71 u/L
  ALBUMIN: 4.2 G/DL
  ALKALINE PHOSPHATASE: 385.33 u/L
  ASPARTATE AMINOTRANSFERASE: 116 u/L
  BLOOD UREA NITROGEN: 16 mg/dL
  CARBON DIOXIDE: 24.67 mmol/L
  CHLORIDE: 104.67 MEQ/L
  CHOLESTEROL: 68 mg/dL
  CREATINE PHOSPHOKINASE: 406 u/L
  CREATININE: 0.19 mg/dL
  GLUCOSE: 157 mg/dL
  LACTATE DEHYDROGENASE: 402.67 u/L
  LIPASE: 10 u/L
  PHOSPHORUS: 12.03 mg/dL
  POTASSIUM: 6.59 MEQ/L
  SODIUM: 145.53 MEQ/L
  TOTAL BILIRUBIN: 0.2 mg/dL
  TOTAL PROTEIN: 5.67 G/DL
  URIC ACID: 1.73 mg/dL
[3]
  ABSOLUTE BASOPHIL: 0 CELLS/uL
  ABSOLUTE EOSINOPHIL: 64.33 CELLS/uL
  ABSOLUTE LYMPHOCYTE: 14339 CELLS/uL
  ABSOLUTE MONOCYTE: 275 CELLS/uL
  ABSOLUTE SEGMENTED NEUTROPHIL: 888.33 CELLS/uL
  BASOPHIL: 0%
  EOSINOPHIL: 0.33%
  ERYTHROCYTE COUNT: 6.31 x10E6/uL
  HEMATOCRIT: 40.47%
  HEMOGLOBIN: 15.03 G/DL
  LEUKOCYTE COUNT: 15.57 x10E3/uL
  LYMPHOCYTE: 92.33%
  MEAN CORPUSCULAR HEMOGLOBIN: 23.77 pg
  MEAN CORPUSCULAR HEMOGLOBIN CONCENTRATION: 37.23 G/DL
  MEAN CORPUSCULAR VOLUME: 63.93 fL
  MONOCYTE: 1.67%
  NEUTROPHIL: 5.67%
  NUCLEATED RED BLOOD CELLS: 0 /100WBC
  PLATELET COUNT: 990.67 x10E3/uL
  ALANINE AMINOTRANSFERASE: 44.33 u/L
  ALBUMIN: 4.53 G/DL
  ALKALINE PHOSPHATASE: 385.67 u/L
  ASPARTATE AMINOTRANSFERASE: 82 u/L
  BLOOD UREA NITROGEN: 17.33 mg/dL
  CARBON DIOXIDE: 27.33 mmol/L
  CHLORIDE: 108.33 MEQ/L
  CHOLESTEROL: 76.67 mg/dL
  CREATINE PHOSPHOKINASE: 501.67 u/L
  CREATININE: 0.22 mg/dL
  GLUCOSE: 154 mg/dL
  LACTATE DEHYDROGENASE: 206.33 u/L
  LIPASE: 9.33 u/L
  PHOSPHORUS: 11.87 mg/dL
  POTASSIUM: 6.29 MEQ/L
  SODIUM: 147.9 MEQ/L
  TOTAL BILIRUBIN: 0.23 mg/dL
  TOTAL PROTEIN: 6.37 G/DL
  URIC ACID: 1.63 mg/dL
